What all share (type): functional, cell-based
Experiment [1] has as its system HepG2. The experiment in a line: Up regulation of LDLR mRNA expression in human HepG2 cells at 50 uM for 24 hrs by qPCR analysis.
Experiment [2] has as its system HepG2. Briefly: Up regulation of APOC2 mRNA expression in human HepG2 cells at 50 uM for 24 hrs by qPCR analysis. (Real-time PCR tracks product formation cycle by cycle.)
Experiment [3] relates to HepG2. The experiment in a line: Up regulation of protein expression in human HepG2 cells at 10 to 50 uM for 24 hrs by western blot analysis. Particulars: dose 10-50 µM. For orientation: Immunoblotting shows a protein as a band on a membrane.
Experiment [4] has as its system HepG2. The experiment in a line: Up regulation of SREBP mRNA expression in human HepG2 cells at 50 uM for 24 hrs by qPCR analysis.
In experiment [5] the test system is HepG2. Briefly: Up regulation of APOE mRNA expression in human HepG2 cells at 50 uM for 24 hrs by qPCR analysis.

The source made the active and inactive calls. The calls are words filed in the database; no cut-off is given here.

Consider `COc1ccc(C(=C2C=CC(=O)C=C2)c2c(-c3ccc(O)cc3)ccc(COc3ccc(C(=C4C=CC(=O)C=C4)c4c(-c5ccc(O)cc5)ccc(CO)c4C#Cc4ccc(O)cc4)cc3)c2C#Cc2ccc(O)cc2)cc1`, for which, in experiment [1], the result was inactive.
Same read-out and setting: the result for `O=C1C=CC(=C(c2ccc(O)cc2)c2c(-c3ccc(O)cc3)ccc(COc3ccc([C@@]4(c5ccc(O)cc5)c5cc(O)ccc5-c5ccc(CO)c(C#Cc6ccc(O)cc6)c54)cc3)c2C#Cc2ccc(O)cc2)C=C1` reads “inactive”; that for `O=C1C=CC(=C(c2ccc(OCc3ccc(-c4ccc(O)cc4)c(C(=C4C=CC(=O)C=C4)c4ccc(O)cc4)c3C#Cc3ccc(O)cc3)cc2)c2c(-c3ccc(O)cc3)ccc(CO)c2C#Cc2ccc(O)cc2)C=C1`, “inactive”; that for `O=C1C=CC(=C(c2ccc(O)cc2)c2c(-c3ccc(O)cc3)ccc(COCc3ccc(-c4ccc(O)cc4)c(C(=C4C=CC(=O)C=C4)c4ccc(O)cc4)c3C#Cc3ccc(O)cc3)c2C#Cc2ccc(O)cc2)C=C1`, “inactive”.
Still for that read-out and setting: as for `O=C1C=CC(=C(c2ccc(O)cc2)c2c(-c3ccc(O)cc3)ccc(CO)c2C#Cc2ccc(O)cc2)C=C1`, the entry is “inactive”.
`COCc1ccc2c(c1CC(=O)c1ccc(O)cc1)C(c1ccc(OC)cc1)(c1ccc(OC)cc1)c1cc(O)ccc1-2`: the outcome in experiment [2], in experiment [3], in experiment [4], in experiment [5] and in experiment [1] was Active.

The record behind these values is ChEMBL document CHEMBL5038574, “Selaginellin Derivatives from Selaginella tamariscina and Their Upregulating Effects on Low-Density Lipoprotein Receptor Expression” (J Nat Prod, 2021).
